Assays:
Settings in all cases: in vivo, po
Rattus norvegicus [1] = assay: Total electrolytic excretion of sodium in urine of rats after peroral administration of 239 uM/Kg of drug; type: ADME, organism-based
Rattus norvegicus [2] = assay: Total electrolytic excretion of potassium in urine of rats after peroral administration of 71.8 uM/Kg of drug; type: ADME, organism-based
Rattus norvegicus [3] = assay: Total electrolytic excretion of chlorine in urine of rats after peroral administration of 23.9 uM/Kg of drug; type: ADME, organism-based
Rattus norvegicus [4] = assay: Total electrolytic excretion of chlorine in urine of rats after peroral administration of 239 uM/Kg of drug; type: ADME, organism-based
Rattus norvegicus [5] = assay: Total electrolytic excretion of potassium in urine of rats after peroral administration of 23.9 uM/Kg of drug; type: ADME, organism-based
Rattus norvegicus [6] = assay: Total electrolytic excretion of potassium in urine of rats after peroral administration of 239 uM/Kg of drug; type: ADME, organism-based
Rattus norvegicus [7] = assay: Total electrolytic excretion of chlorine in urine of rats after peroral administration of 71.8 uM/Kg of drug; type: ADME, organism-based
Rattus norvegicus [8] = assay: Tested for the diuretic activity by measuring the urinary volume after peroral administering 71.8 uM/Kg of drug in rats; type: ADME, organism-based, Urine
Rattus norvegicus [9] = assay: Total electrolytic excretion of sodium in urine of rats after peroral administration of 71.8 uM/Kg of drug; type: ADME, organism-based
Rattus norvegicus [10] = assay: Tested for the diuretic activity by measuring the urinary volume after peroral administering 23.9 uM/Kg of drug in rats; type: ADME, organism-based, Urine
Rattus norvegicus [11] = assay: Tested for the diuretic activity by measuring the urinary volume after peroral administering 239 uM/Kg of drug in rats; type: ADME, organism-based, Urine
Rattus norvegicus [12] = assay: Total electrolytic excretion of sodium in urine of rats after peroral administration of 23.9 uM/Kg of drug; type: ADME, organism-based
Rattus norvegicus [13] = assay: Ratio of Total electrolytic excretion of sodium and potassium in urine of rats after peroral administration of 23.9 uM/Kg of drug; type: ADME, organism-based
Rattus norvegicus [14] = assay: Ratio of Total electrolytic excretion of sodium and potassium in urine of rats after peroral administration of 239 uM/Kg of drug; type: ADME, organism-based
Rattus norvegicus [15] = assay: Ratio of Total electrolytic excretion of sodium and potassium in urine of rats after peroral administration of 71.8 uM/Kg of drug; type: ADME, organism-based
Rattus norvegicus [16] = assay: Total electrolytic excretion of sodium in urine of rats after peroral administration of 21.7 uM/Kg of drug; type: ADME, organism-based
Rattus norvegicus [17] = assay: Total electrolytic excretion of sodium in urine of rats after peroral administration of 217 uM/Kg of drug; type: ADME, organism-based
Rattus norvegicus [18] = assay: Total electrolytic excretion of potassium in urine of rats after peroral administration of 65.2 uM/Kg of drug; type: ADME, organism-based
Rattus norvegicus [19] = assay: Total electrolytic excretion of chlorine in urine of rats after peroral administration of 21.7 uM/Kg of drug; type: ADME, organism-based
Rattus norvegicus [20] = assay: Total electrolytic excretion of chlorine in urine of rats after peroral administration of 217 uM/Kg of drug; type: ADME, organism-based
Rattus norvegicus [21] = assay: Total electrolytic excretion of potassium in urine of rats after peroral administration of 21.7 uM/Kg of drug; type: ADME, organism-based
Rattus norvegicus [22] = assay: Total electrolytic excretion of potassium in urine of rats after peroral administration of 217 uM/Kg of drug; type: ADME, organism-based
Rattus norvegicus [23] = assay: Total electrolytic excretion of chlorine in urine of rats after peroral administration of 65.2 uM/Kg of drug; type: ADME, organism-based
Rattus norvegicus [24] = assay: Tested for the diuretic activity by measuring the urinary volume after peroral administering 65.2 uM/Kg of drug in rats; type: ADME, organism-based, Urine
Rattus norvegicus [25] = assay: Total electrolytic excretion of sodium in urine of rats after peroral administration of 65.2 uM/Kg of drug; type: ADME, organism-based
Rattus norvegicus [26] = assay: Tested for the diuretic activity by measuring the urinary volume after peroral administering 21.7 uM/Kg of drug in rats; type: ADME, organism-based, Urine
Rattus norvegicus [27] = assay: Tested for the diuretic activity by measuring the urinary volume after peroral administering 217 uM/Kg of drug in rats; type: ADME, organism-based, Urine
Rattus norvegicus [28] = assay: Ratio of Total electrolytic excretion of sodium and potassium in urine of rats after peroral administration of 21.7 uM/Kg of drug; type: ADME, organism-based
Rattus norvegicus [29] = assay: Ratio of Total electrolytic excretion of sodium and potassium in urine of rats after peroral administration of 217 uM/Kg of drug; type: ADME, organism-based
Rattus norvegicus [30] = assay: Ratio of Total electrolytic excretion of sodium and potassium in urine of rats after peroral administration of 65.2 uM/Kg of drug; type: ADME, organism-based

SMILES: FC(F)(F)c1cccc(N/C(=N/C2CCCCC2)N2CCOCC2)c1
- Excretion Na+ (Rattus norvegicus [1]): 2.02 m equiv
- Excretion K+ (Rattus norvegicus [2]): 0.32 m equiv
- Excretion Cl- (Rattus norvegicus [3]): 1.17 m equiv
- Excretion Cl- (Rattus norvegicus [4]): 2.03 m equiv
- Excretion K+ (Rattus norvegicus [5]): 0.39 m equiv
- Excretion K+ (Rattus norvegicus [6]): 0.45 m equiv
- Excretion Cl- (Rattus norvegicus [7]): 1.59 m equiv
- V (Rattus norvegicus [8]): 9.5 mL
- Excretion Na+ (Rattus norvegicus [9]): 1.46 m equiv
- V (Rattus norvegicus [10]): 6.6 mL
- V (Rattus norvegicus [11]): 14 mL
- Excretion Na+ (Rattus norvegicus [12]): 1.02 m equiv
- Ratio (Rattus norvegicus [13]): 2.6
- Ratio (Rattus norvegicus [14]): 4.5
- Ratio (Rattus norvegicus [15]): 4.6

SMILES: Clc1ccc(CN/C(=N/C2CCCCC2)N2CCOCC2)cc1Cl
- Excretion Na+ (Rattus norvegicus [16]): 0.96 m equiv
- Excretion Na+ (Rattus norvegicus [17]): 1.59 m equiv
- Excretion K+ (Rattus norvegicus [18]): 0.26 m equiv
- Excretion Cl- (Rattus norvegicus [19]): 1.05 m equiv
- Excretion Cl- (Rattus norvegicus [20]): 1.39 m equiv
- Excretion K+ (Rattus norvegicus [21]): 0.25 m equiv
- Excretion K+ (Rattus norvegicus [22]): 0.15 m equiv
- Excretion Cl- (Rattus norvegicus [23]): 1.44 m equiv
- V (Rattus norvegicus [24]): 9.3 mL
- Excretion Na+ (Rattus norvegicus [25]): 1.55 m equiv
- V (Rattus norvegicus [26]): 6.4 mL
- V (Rattus norvegicus [27]): 8.7 mL
- Ratio (Rattus norvegicus [28]): 3.8
- Ratio (Rattus norvegicus [29]): 10.9
- Ratio (Rattus norvegicus [30]): 5.9

From ChEMBL document CHEMBL1127385, “Synthesis and diuretic activity of alkyl- and arylguanidine analogs of N,N'-dicyclohexyl-4-morpholinecarboxamidine in rats and dogs” (J Med Chem, 1994)
